# Key:
# CETP [1] = assay: Ex vivo CETP activity in plasma of hamsters (saline or Triton WR-1339 treated); conditions: hamster; for Inhibition of CETP activity, lower dose group, Triton WR-1339 group / Inhibition of CETP activity, lower dose group, saline group: oral gavage: Torcetrapib 5 mg/kg, Anacetrapib 1.5 mg/kg, Example 49 1.5 mg/kg, Example 8 0.75 mg/kg; for Inhibition of CETP activity, lower dose group, Triton WR-1339 group / Inhibition of CETP activity, higher dose group, Triton WR-1339 group: Triton WR-1339 100 mg/kg i.v.; for Inhibition of CETP activity, lower dose group, Triton WR-1339 group: not significant vs vehicle; for Inhibition of CETP activity, lower dose group, saline group / Inhibition of CETP activity, higher dose group, saline group: saline i.v.; for Inhibition of CETP activity, higher dose group, Triton WR-1339 group / Inhibition of CETP activity, higher dose group, saline group: oral gavage: Torcetrapib 10 mg/kg, Anacetrapib 3 mg/kg, Example 49 3 mg/kg, Example 8 1.5 mg/kg
# Protocol: Nine- to ten-week-old, male golden Syrian hamsters were purchased from Japan SLC Inc. (Shizuoka, Japan). Animals underwent a more than 1-week acclimation period under the following conditions: 8:00/20:00 light/dark cycle, room temperature 23±2° C. […] During this time, animals received filtered (0.5 μm) water and a standard chow diet ad libitum.
# Whole blood samples were collected using a heparin-washed syringe (Heparin sodium injection “Ajinomoto”; Ajinomoto, Tokyo, Japan) from the abdominal vein by venipuncture under isoflurane (Abbott Japan Co. Ltd.) inhalant anesthesia. After centrifugation at 15,000 rpm for 10 min at 4° C., heparinized plasma was prepared and stored at −80° C. until use.
# CETP activity (RFU/min) was defined as the change in fluorescence intensity from 30 to 90 min.
# The effect of an acute increase of plasma triglycerides in vivo (acute increase in triglyceride-rich particles) on the ability of Torcetrapib to alter plasma CETP activity, triglyceride and total cholesterol levels was investigated. Torcetrapib at doses of 3, 10 or 30 mg/kg or vehicle was administered once by gavage to hamsters fed a standard chow diet.
# Compound or vehicle was administered once by gavage to hamsters fed a standard chow diet.
# [2] = Plasma drug concentration in cynomolgus monkeys on chow or high carbohydrate diet; type: in vivo; conditions: Example 8 3 mg/kg, Anacetrapib 10 mg/kg, mean ± SD; for Plasma [drug] ng/mL, Day 7, Chow / Plasma [drug] ng/mL, Day 14, Chow: chow diet; for Plasma [drug] ng/mL, Day 7, Chow / Plasma [drug] ng/mL, Day 7, High CHO: day 7, daily oral; for Plasma [drug] ng/mL, Day 14, Chow / Plasma [drug] ng/mL, Day 14, High CHO: day 14, daily oral; for Plasma [drug] ng/mL, Day 7, High CHO / Plasma [drug] ng/mL, Day 14, High CHO: high carbohydrate diet
# Source text: (§1) Normal male cynomolgus monkeys (n=17) weighing between 8-14 kg are placed on a high-carbohydrate, low-fat diet. The caloric composition of the diet is approximately 13.4% protein, 79.1% carbohydrate (sugar to starch ratio 50:50) and 7.5% fat. Calories are derived from standard monkey chow (LabDiet® 5047, PMI, Richmond, Ind. or LabDiet® 5000, Balanced Fiber diet, PMI, Richmond, Ind.) in quantities necessary to meet the protein and fat requirements, with the remaining calories provided by sugar-sweetened cereals, candies, and fruit (banana, orange, cantaloupe, honeydew, pineapple). The high-carbohydrate (CHO) diet will be fed for 18 days (4 days of pre-drug diet, 14 days of drug treatment), after which time they will return to their regular chow diets for a 14 day washout period followed by a second 14 day dosing phase of the study (normal diet).
# (§2) Compound of Example 8 is dissolved at 30 mg/mL in 1M NaOH+ethanol:maisoel glyceride:propylene glycol:cremophor RH40 (10:36:9:45) and diluted 1:10 in ddH2O. […] The formulations are prepared each day (weekend doses are prepared on Friday) and stored stirring and protected from light at room temperature until dosing. Artificial flavor and color will be added to the dose when prepared.
# (§3) The animals will ingest the compounds (1 mL/kg) voluntarily from a plastic syringe offered at their home cage at approximately 8 am daily. Animals will be fed 60 minutes after the dose is administered.
# (§4) Blood collection will take place weekly during each dosing phase. Animals are fasted overnight (approximately 16 hours) prior to blood collection. Blood samples are collected from a saphenous vein via needle and syringe and put into 2 mL EDTA-coated tubes that are immediately placed on ice until centrifugation. Samples are centrifuged at 3,000 rpm for 20 minutes. The plasma is collected, divided into aliquots (listed below), and stored at −70° C. until analysis.
# CETP [3] = target: T1, CETP (Macaca fascicularis, UniProt P47896); assay: Plasma CETP activity in cynomolgus monkeys on chow or high carbohydrate diet; type: in vivo; conditions: for CETP activity % Δ vs day 0, Day 7, Chow / CETP activity % Δ vs day 0, Day 14, Chow: chow diet; for CETP activity % Δ vs day 0, Day 7, Chow / CETP activity % Δ vs day 0, Day 7, High CHO: day 7, Example 8 3 mg/kg; for CETP activity % Δ vs day 0, Day 7, Chow / CETP activity % Δ vs day 0, Day 14, Chow / CETP activity % Δ vs day 0, Day 7, High CHO / CETP activity % Δ vs day 0, Day 14, High CHO: Anacetrapib 10 mg/kg, mean ± SD; for CETP activity % Δ vs day 0, Day 14, Chow / CETP activity % Δ vs day 0, Day 14, High CHO: day 14, Example 8 3 mg/kg; for CETP activity % Δ vs day 0, Day 7, High CHO / CETP activity % Δ vs day 0, Day 14, High CHO: high carbohydrate diet
# T1 construct: from tissue; host or cells: EDTA plasma of cynomolgus monkeys dosed orally
# T1 sequence (P47896 18-493): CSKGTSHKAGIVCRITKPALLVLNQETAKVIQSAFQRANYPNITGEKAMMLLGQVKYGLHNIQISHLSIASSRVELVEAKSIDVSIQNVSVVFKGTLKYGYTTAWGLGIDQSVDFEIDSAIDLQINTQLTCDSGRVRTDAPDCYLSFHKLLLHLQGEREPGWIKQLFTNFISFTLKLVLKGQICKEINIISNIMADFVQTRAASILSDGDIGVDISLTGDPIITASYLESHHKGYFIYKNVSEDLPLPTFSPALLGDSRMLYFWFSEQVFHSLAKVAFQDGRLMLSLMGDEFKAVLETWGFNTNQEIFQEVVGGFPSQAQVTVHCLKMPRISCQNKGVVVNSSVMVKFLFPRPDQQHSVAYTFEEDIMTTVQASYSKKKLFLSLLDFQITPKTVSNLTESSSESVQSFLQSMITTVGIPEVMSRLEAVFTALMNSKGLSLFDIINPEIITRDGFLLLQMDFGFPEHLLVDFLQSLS
# Source text: as §1, §2, §3, §4
# [4] = HDL-C in cynomolgus monkeys on chow or high carbohydrate diet; type: in vivo; conditions: Anacetrapib 10 mg/kg, mean ± SD; for HDL-C % Δ vs day 0, Day 7, Chow / HDL-C % Δ vs day 0, Day 14, Chow: chow diet; for HDL-C % Δ vs day 0, Day 7, Chow / HDL-C % Δ vs day 0, Day 7, High CHO: day 7, Example 8 3 mg/kg; for HDL-C % Δ vs day 0, Day 14, Chow / HDL-C % Δ vs day 0, Day 14, High CHO: day 14, Example 8 3 mg/kg; for HDL-C % Δ vs day 0, Day 7, High CHO / HDL-C % Δ vs day 0, Day 14, High CHO: high carbohydrate diet
# Source text: as §1, §2, §3, §4
"Plasma [drug] ng/mL, Day 7, Chow [2] [ng/mL]","Plasma [drug] ng/mL, Day 14, Chow [2] [ng/mL]","Plasma [drug] ng/mL, Day 7, High CHO [2] [ng/mL]","Plasma [drug] ng/mL, Day 14, High CHO [2] [ng/mL]","CETP activity % Δ vs day 0, Day 7, Chow (CETP [3]) [%]","CETP activity % Δ vs day 0, Day 14, Chow (CETP [3]) [%]","CETP activity % Δ vs day 0, Day 7, High CHO (CETP [3]) [%]","CETP activity % Δ vs day 0, Day 14, High CHO (CETP [3]) [%]",CETP inhibitory activity in monkeys with diet-induced hypertriglyceridemia (CETP [3]; TG>500 mg/dL),Compound,"Inhibition of CETP activity, lower dose group, Triton WR-1339 group (CETP [1]) [%]","Inhibition of CETP activity, lower dose group, saline group (CETP [1]) [%]","Inhibition of CETP activity, higher dose group, Triton WR-1339 group (CETP [1]) [%]","Inhibition of CETP activity, higher dose group, saline group (CETP [1]) [%]","HDL-C % Δ vs day 0, Day 7, Chow [4] [%]","HDL-C % Δ vs day 0, Day 14, Chow [4] [%]","HDL-C % Δ vs day 0, Day 7, High CHO [4] [%]","HDL-C % Δ vs day 0, Day 14, High CHO [4] [%]"
272 ± 74,320 ± 93,1836 ± 3694,1437 ± 2935,−62 ± 15,−59 ± 19,−33 ± 23,−24 ± 22,,"COc1cc(F)c(C(C)C)cc1-c1ccc(C(F)(F)F)cc1CN1C(=O)O[C@H](c2cc(C(F)(F)F)cc(C(F)(F)F)c2)[C@@H]1C [Anacetrapib, reference compound]",8,56,13,78,141 ± 45,136 ± 28,172 ± 34,184 ± 45
983 ± 408,1015 ± 398,1706 ± 949,1709 ± 800,−78 ± 7,−73 ± 9,−72 ± 7,−66 ± 10,retains CEPT inhibitory activity,CC[C@@H]1C[C@H](N(Cc2cc(C(F)(F)F)cc(C(F)(F)F)c2)c2ncc(-c3cnn(C)c3)cn2)C[C@H](CC)N1C(=O)O[C@H]1CC[C@H](C(=O)O)CC1 [Example 8],20,72,47,79,144 ± 57,142 ± 33,210 ± 24,241 ± 29

# — patent US9867811B2, “Method of treating atherosclerosis in high triglyceride subjects” (NOVARTIS AG, priority 2011, dated 2018)
